According to ChEMBL document CHEMBL2429821, “A Casein kinase 1/Checkpoint kinase 1 pyrazolo-pyridine protein kinase inhibitor as novel activator of the p53 pathway” (Bioorg Med Chem Lett, 2013):

What was measured:
[1] = target: Ribosomal protein S6 kinase alpha-5 (Homo sapiens) (UniProt O75582); assay: Inhibition of human MSK1 assessed as residual activity at 1 uM relative to control
[2] = target: Serine/threonine-protein kinase N2 (Homo sapiens) (UniProt Q16513); assay: Inhibition of human PRK2 assessed as residual activity at 10 uM relative to control
Sequence of Serine/threonine-protein kinase N2 (Homo sapiens) (Q16513 whole entry, looked up): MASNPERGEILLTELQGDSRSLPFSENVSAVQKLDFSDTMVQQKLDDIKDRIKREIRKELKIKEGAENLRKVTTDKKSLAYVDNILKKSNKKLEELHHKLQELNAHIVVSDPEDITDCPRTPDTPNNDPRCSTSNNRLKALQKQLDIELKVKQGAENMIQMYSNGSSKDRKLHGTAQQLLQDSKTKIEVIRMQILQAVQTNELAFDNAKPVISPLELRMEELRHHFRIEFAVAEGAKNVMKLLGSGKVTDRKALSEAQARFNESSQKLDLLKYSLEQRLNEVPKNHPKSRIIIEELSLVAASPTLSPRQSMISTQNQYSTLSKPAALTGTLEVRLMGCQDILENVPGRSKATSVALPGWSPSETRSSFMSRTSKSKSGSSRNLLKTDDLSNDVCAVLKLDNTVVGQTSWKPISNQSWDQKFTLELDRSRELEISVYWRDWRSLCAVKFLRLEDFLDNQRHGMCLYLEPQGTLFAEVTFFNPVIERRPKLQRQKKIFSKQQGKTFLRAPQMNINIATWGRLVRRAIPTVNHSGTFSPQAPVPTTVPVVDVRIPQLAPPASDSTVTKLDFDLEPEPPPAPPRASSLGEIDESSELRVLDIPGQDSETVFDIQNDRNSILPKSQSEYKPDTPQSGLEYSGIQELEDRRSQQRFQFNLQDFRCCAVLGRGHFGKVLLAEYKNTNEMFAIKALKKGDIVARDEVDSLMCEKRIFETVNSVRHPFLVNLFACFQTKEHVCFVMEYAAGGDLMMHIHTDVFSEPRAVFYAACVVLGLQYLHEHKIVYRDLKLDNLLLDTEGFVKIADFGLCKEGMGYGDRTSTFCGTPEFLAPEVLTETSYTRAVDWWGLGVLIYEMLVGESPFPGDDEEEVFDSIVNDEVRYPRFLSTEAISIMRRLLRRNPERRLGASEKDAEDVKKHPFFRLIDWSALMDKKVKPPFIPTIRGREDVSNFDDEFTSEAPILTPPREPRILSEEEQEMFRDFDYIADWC

[3] = target: T1, Inhibitor of nuclear factor kappa-B kinase subunit beta (Homo sapiens) (UniProt O14920); assay: Inhibition of human IKKbeta assessed as residual activity at 10 uM relative to control
T1 sequence (whole entry): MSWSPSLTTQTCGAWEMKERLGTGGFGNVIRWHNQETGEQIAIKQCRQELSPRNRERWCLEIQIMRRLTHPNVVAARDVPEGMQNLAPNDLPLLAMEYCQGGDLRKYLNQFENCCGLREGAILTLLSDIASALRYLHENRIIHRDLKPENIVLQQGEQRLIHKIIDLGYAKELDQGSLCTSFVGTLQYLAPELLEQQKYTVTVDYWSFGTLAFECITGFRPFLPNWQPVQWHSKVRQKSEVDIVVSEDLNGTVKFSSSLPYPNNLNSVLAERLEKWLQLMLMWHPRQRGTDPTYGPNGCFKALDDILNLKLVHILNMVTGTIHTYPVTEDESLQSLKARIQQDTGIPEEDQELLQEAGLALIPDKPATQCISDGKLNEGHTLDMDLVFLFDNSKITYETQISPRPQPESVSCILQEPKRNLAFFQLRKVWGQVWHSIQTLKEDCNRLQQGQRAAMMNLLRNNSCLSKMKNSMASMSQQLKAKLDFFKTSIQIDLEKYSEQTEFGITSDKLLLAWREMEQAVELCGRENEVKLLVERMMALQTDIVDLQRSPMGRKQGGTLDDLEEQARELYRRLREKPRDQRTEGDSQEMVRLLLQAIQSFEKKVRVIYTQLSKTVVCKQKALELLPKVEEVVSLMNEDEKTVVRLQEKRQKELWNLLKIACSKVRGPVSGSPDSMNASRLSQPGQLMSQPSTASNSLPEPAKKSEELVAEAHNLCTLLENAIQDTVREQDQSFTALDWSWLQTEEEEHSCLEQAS

[4] = target: 3-phosphoinositide-dependent protein kinase 1 (Homo sapiens) (UniProt O15530); assay: Inhibition of human PDK1 assessed as residual activity at 1 uM relative to control
Sequence of 3-phosphoinositide-dependent protein kinase 1 (Homo sapiens) (O15530 whole entry, looked up): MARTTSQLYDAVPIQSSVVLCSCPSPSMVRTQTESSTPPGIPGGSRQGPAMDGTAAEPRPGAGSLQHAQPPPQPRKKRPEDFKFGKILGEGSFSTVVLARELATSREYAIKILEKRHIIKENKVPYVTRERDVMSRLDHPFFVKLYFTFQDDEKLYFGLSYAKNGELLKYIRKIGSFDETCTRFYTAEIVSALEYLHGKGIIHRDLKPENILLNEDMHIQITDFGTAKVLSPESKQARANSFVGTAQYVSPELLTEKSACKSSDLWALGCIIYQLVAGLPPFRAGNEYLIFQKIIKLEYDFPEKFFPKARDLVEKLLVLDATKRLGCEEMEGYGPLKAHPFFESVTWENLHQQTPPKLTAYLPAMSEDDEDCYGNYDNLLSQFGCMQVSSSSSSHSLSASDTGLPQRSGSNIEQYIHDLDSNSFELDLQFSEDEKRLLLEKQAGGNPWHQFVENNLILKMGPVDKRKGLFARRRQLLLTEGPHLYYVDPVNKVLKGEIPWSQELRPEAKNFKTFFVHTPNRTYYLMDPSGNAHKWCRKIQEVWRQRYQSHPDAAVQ

[5] = target: Tyrosine-protein kinase Yes (Homo sapiens) (UniProt P07947); assay: Inhibition of human YES1 assessed as residual activity at 10 uM relative to control
Sequence of Tyrosine-protein kinase Yes (Homo sapiens) (P07947 2-543 limits assumed): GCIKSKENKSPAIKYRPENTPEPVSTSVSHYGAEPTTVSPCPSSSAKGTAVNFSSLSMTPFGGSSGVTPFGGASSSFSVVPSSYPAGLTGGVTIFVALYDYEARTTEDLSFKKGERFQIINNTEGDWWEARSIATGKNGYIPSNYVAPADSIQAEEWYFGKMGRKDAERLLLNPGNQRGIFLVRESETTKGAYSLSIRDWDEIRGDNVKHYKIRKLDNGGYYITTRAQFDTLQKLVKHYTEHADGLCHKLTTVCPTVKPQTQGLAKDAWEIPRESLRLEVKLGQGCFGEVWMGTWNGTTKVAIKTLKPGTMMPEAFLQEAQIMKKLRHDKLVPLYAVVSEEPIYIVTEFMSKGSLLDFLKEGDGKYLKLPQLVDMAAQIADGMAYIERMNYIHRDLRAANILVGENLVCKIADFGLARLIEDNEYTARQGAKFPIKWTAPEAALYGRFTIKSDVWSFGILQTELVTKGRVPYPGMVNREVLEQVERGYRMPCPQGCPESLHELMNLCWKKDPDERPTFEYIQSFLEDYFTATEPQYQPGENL

[6] = target: Maternal embryonic leucine zipper kinase (Homo sapiens) (UniProt Q14680); assay: Inhibition of human MELK assessed as residual activity at 1 uM relative to control
Sequence of Maternal embryonic leucine zipper kinase (Homo sapiens) (Q14680 whole entry, looked up): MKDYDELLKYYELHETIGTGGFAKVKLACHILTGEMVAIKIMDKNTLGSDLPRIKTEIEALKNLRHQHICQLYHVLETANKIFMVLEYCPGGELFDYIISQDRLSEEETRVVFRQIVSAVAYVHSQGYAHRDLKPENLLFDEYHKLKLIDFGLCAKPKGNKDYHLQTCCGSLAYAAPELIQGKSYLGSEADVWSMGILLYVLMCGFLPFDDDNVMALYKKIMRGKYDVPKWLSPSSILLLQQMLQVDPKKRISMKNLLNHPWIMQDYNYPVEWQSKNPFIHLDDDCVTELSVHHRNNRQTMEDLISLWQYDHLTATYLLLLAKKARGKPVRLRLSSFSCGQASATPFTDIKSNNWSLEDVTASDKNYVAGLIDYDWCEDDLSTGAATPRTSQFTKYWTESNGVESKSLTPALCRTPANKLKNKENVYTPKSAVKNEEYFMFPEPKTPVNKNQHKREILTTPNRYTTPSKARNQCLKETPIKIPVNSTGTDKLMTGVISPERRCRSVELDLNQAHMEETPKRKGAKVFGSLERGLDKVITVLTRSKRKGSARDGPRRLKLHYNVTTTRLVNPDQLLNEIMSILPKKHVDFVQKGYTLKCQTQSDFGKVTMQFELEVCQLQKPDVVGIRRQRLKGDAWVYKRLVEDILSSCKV

[7] = target: T2, Serine/threonine-protein kinase Sgk1 (Homo sapiens) (UniProt O00141); assay: Inhibition of human SGK1 assessed as residual activity at 1 uM relative to control
T2 sequence (whole entry): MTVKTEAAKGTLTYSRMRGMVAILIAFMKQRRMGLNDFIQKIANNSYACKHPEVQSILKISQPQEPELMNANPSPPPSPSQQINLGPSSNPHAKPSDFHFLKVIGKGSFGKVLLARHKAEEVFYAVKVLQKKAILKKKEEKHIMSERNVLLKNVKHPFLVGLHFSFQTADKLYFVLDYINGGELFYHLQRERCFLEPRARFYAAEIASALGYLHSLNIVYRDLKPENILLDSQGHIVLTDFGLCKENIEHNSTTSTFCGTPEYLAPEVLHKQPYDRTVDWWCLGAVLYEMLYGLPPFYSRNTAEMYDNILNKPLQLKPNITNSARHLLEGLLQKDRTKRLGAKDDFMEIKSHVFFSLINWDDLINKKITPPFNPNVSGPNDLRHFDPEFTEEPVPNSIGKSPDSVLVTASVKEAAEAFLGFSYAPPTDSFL

[8] = target: Rho-associated protein kinase 2 (Rattus norvegicus) (UniProt Q62868); assay: Inhibition of rat ROCK2 assessed as residual activity at 1 uM relative to control
Sequence of Rho-associated protein kinase 2 (Rattus norvegicus) (Q62868 whole entry, looked up): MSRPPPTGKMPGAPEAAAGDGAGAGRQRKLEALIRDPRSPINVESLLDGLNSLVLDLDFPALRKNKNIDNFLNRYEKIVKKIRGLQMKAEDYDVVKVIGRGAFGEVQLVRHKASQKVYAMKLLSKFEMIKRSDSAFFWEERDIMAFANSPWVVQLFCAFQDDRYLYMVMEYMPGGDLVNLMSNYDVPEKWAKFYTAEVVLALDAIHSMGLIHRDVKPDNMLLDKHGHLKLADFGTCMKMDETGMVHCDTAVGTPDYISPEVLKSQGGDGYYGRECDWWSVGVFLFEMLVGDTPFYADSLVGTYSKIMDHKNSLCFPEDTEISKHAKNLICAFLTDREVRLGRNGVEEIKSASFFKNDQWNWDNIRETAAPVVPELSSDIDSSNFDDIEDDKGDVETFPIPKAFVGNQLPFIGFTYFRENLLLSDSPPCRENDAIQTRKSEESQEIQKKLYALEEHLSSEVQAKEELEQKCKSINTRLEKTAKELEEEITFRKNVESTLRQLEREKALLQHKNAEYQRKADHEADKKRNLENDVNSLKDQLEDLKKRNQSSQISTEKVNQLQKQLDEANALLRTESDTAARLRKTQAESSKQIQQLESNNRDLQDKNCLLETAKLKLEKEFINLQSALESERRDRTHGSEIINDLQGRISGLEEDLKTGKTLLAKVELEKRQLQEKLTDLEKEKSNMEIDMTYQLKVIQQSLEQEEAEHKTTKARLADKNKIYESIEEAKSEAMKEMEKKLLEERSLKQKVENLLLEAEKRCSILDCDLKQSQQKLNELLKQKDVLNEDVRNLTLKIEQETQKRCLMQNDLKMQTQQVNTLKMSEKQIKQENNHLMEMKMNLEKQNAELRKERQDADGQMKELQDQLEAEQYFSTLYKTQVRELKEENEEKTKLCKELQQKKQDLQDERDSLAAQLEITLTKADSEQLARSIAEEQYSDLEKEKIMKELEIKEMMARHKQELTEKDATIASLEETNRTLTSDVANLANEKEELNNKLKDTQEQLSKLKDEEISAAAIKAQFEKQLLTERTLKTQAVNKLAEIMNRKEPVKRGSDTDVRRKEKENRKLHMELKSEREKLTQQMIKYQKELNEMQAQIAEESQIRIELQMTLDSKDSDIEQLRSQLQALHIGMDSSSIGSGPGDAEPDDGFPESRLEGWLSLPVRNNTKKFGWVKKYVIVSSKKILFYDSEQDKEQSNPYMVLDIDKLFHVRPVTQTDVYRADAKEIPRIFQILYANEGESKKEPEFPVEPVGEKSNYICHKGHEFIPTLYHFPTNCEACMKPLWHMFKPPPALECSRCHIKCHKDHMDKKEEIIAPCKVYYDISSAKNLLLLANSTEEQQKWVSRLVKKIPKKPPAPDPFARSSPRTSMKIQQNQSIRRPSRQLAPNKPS

[9] = target: Insulin-like growth factor 1 receptor (Homo sapiens) (UniProt P08069); assay: Inhibition of human IGF-1R assessed as residual activity at 1 uM relative to control
[10] = target: T3, MAP kinase-activated protein kinase 5 (Homo sapiens) (UniProt Q8IW41); assay: Inhibition of human PRAK assessed as residual activity at 1 uM relative to control
T3 sequence (whole entry): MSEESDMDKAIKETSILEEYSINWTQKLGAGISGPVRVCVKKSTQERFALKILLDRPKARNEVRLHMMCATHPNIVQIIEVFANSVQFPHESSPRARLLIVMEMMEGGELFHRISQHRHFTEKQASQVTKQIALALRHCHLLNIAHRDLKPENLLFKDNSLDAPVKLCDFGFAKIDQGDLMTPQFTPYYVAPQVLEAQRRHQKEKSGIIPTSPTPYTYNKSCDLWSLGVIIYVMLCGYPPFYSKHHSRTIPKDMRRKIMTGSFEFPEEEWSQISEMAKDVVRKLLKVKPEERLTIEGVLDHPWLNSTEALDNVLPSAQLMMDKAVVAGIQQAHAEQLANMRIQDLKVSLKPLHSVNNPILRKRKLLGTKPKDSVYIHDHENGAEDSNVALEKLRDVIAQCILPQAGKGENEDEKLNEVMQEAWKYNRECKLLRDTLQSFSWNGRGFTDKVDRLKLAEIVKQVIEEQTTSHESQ

[11] = target: T4, Inhibitor of nuclear factor kappa-B kinase subunit epsilon (Homo sapiens) (UniProt Q14164); assay: Inhibition of human IKKepsilon assessed as residual activity at 1 uM relative to control
T4 sequence (whole entry): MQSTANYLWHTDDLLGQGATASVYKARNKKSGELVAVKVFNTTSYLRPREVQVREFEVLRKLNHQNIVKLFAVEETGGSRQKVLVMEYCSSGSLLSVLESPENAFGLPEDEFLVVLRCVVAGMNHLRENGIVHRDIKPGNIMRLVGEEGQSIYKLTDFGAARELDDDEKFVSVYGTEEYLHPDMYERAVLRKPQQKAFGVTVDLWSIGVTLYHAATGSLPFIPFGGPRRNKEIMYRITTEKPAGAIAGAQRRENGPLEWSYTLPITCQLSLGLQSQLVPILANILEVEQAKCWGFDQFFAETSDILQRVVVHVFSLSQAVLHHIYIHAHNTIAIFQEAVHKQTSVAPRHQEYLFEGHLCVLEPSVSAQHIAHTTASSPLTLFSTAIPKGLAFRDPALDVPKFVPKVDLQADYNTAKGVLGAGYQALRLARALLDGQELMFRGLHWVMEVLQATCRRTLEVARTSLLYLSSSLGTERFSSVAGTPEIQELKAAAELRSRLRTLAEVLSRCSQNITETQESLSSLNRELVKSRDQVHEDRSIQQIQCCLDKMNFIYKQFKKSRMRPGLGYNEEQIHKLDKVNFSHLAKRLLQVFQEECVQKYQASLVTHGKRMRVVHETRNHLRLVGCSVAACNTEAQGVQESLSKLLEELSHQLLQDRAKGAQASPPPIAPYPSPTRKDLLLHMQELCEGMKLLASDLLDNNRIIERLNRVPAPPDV

Sequence of Ribosomal protein S6 kinase alpha-5 (Homo sapiens) (O75582 whole entry, looked up): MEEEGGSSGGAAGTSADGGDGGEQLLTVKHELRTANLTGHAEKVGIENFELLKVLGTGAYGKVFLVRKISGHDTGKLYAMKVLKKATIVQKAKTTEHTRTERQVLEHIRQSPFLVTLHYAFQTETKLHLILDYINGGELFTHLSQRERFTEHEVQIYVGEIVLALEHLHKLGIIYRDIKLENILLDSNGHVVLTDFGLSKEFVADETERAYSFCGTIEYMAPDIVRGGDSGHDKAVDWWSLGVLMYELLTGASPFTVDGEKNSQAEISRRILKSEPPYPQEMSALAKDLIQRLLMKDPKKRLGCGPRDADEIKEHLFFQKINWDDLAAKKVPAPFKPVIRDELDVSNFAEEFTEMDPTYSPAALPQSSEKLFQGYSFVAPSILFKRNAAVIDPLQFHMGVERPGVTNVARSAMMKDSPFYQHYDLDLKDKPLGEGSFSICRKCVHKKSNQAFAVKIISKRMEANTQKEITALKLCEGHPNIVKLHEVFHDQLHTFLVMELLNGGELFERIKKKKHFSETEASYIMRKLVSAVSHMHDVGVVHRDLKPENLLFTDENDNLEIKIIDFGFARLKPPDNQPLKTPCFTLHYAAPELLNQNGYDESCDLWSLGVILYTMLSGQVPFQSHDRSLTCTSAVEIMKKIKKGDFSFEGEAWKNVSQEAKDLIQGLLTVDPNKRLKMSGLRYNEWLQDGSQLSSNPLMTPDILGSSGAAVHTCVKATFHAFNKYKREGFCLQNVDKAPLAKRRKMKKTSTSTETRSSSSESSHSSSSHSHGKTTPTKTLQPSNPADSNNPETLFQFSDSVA

Row | Activity [1] [%] | Activity [2] [%] | Activity [3] [%] | Activity [4] [%] | Activity [5] [%] | Activity [6] [%] | Activity [7] [%] | Activity [8] [%] | Activity [9] [%] | Activity [10] [%] | Activity [11] [%] | Compound
1 | 95.3 | 42.2 | 72 | 95.8 | 56.9 | 76.1 | 105 | 93.9 | 70.8 | 94.5 | 93.8 | CC(=O)Nc1cccc(-c2cnc3[nH]nc(C)c3c2)c1
2 | 82.7 | 96.5 | 80.4 | 91.4 | 78.2 | 103 | 57.5 | 95 | 82.7 | 82.4 | 85.1 | CC(=O)Nc1nccc(-c2c(-c3ccccc3)noc2C)n1
3 | 70 | 76 | 90 | 108 | 54 | 115 | 108 | 121 | 88 | 82 | 113 | CCCC(=O)Nc1n[nH]c2ncc(-c3cccnc3)cc12
